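Abbreviation: GI50, concentration required for 50% inhibition of growth. TGI: concentration producing complete growth inhibition.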
Legend:
Assay in all cases: growth of human tumour cells (NCI), 384-well format
OVCAR-3 ovarian = tested on: OVCAR-3 ovarian
BT-549 breast = tested on: BT-549 breast
MALME-3M melanoma = tested on: MALME-3M melanoma
SNB-19 CNS = tested on: SNB-19 CNS
HOP-92 NSCLC = tested on: HOP-92 NSCLC
K-562 leukemia = tested on: K-562 leukemia
MOLT-4 leukemia = tested on: MOLT-4 leukemia
SNB-75 CNS = tested on: SNB-75 CNS
SK-MEL-2 melanoma = tested on: SK-MEL-2 melanoma
MDA-MB-231 breast = tested on: MDA-MB-231 breast
ACHN renal = tested on: ACHN renal
RXF 393 renal = tested on: RXF 393 renal
TK-10 renal = tested on: TK-10 renal
SF-268 CNS = tested on: SF-268 CNS
UACC-257 melanoma = tested on: UACC-257 melanoma
SN12C renal = tested on: SN12C renal
A549 NSCLC = tested on: A549 NSCLC
OVCAR-5 ovarian = tested on: OVCAR-5 ovarian
HL-60(TB) leukemia = tested on: HL-60(TB) leukemia
HS 578T breast = tested on: HS 578T breast
OVCAR-8 ovarian = tested on: OVCAR-8 ovarian
NCI-H522 lung = tested on: NCI-H522 lung
HCT-15 colon = tested on: HCT-15 colon
EKVX NSCLC = tested on: EKVX NSCLC
OVCAR-4 ovarian = tested on: OVCAR-4 ovarian
SF-539 CNS = tested on: SF-539 CNS
UO-31 renal = tested on: UO-31 renal
NCI-H23 lung = tested on: NCI-H23 lung
SW-620 colon = tested on: SW-620 colon
CCRF-CEM leukemia = tested on: CCRF-CEM leukemia
HOP-62 NSCLC = tested on: HOP-62 NSCLC
M14 melanoma = tested on: M14 melanoma
LOX IMVI melanoma = tested on: LOX IMVI melanoma
PC-3 prostate = tested on: PC-3 prostate
RPMI-8226 leukemia = tested on: RPMI-8226 leukemia
UACC-62 melanoma = tested on: UACC-62 melanoma
MDA-MB-468 breast = tested on: MDA-MB-468 breast
NCI-H322M lung = tested on: NCI-H322M lung
MDA-MB-435 melanoma = tested on: MDA-MB-435 melanoma
DU-145 prostate = tested on: DU-145 prostate
SK-MEL-28 melanoma = tested on: SK-MEL-28 melanoma

In the case of `CO[C@H](C(=O)[C@@H](O)[C@@H](C)O)[C@@H]1Cc2cc3cc(OC4CC(OC5CC(O)C(O)C(C)O5)C(O)C(C)O4)c(C)c(O)c3c(O)c2C(=O)[C@H]1OC1CC(OC2CC(OC3CC(C)(O)C(O)C(C)O3)C(O)C(C)O2)C(O)C(C)O1` (some centres undefined), the GI50 (OVCAR-3 ovarian) is reported as 0.0203 µM, the TGI (OVCAR-3 ovarian) is reported as 0.0734 µM and the GI50 (BT-549 breast) is reported as 0.0106 µM. For the same compound, the TGI (BT-549 breast) was 0.0237 µM, the GI50 (MALME-3M melanoma) was 0.0141 µM and the TGI (MALME-3M melanoma) was 0.028 µM. For the same compound, the GI50 (SNB-19 CNS) was 0.0237 µM, the GI50 (HOP-92 NSCLC) was 0.0317 µM and the GI50 (K-562 leukemia) was 0.0188 µM. For the same compound, the TGI (K-562 leukemia) was 0.0404 µM, the TGI (MOLT-4 leukemia) was 0.0177 µM and the GI50 (SNB-75 CNS) was 0.0118 µM. For the same compound, the TGI (SNB-75 CNS) was 0.0304 µM, the GI50 (SK-MEL-2 melanoma) was 0.0329 µM and the TGI (SK-MEL-2 melanoma) was 0.0479 µM. The GI50 (MDA-MB-231 breast) was 0.0166 µM, the TGI (MDA-MB-231 breast) was 0.0372 µM and the GI50 (ACHN renal) was 0.0546 µM. The TGI (ACHN renal) was 0.294 µM, the GI50 (RXF 393 renal) was 0.0107 µM and the TGI (RXF 393 renal) was 0.0231 µM. For the same compound, the GI50 (TK-10 renal) was 0.0503 µM, the GI50 (SF-268 CNS) was 0.0172 µM and the TGI (SF-268 CNS) was 0.965 µM. For the same compound, the GI50 (UACC-257 melanoma) was 0.0185 µM, the TGI (UACC-257 melanoma) was 0.0345 µM and the GI50 (SN12C renal) was 0.0152 µM. For the same compound, the TGI (SN12C renal) was 0.0369 µM, the GI50 (A549 NSCLC) was 0.0304 µM and the GI50 (OVCAR-5 ovarian) was 0.0195 µM. The TGI (OVCAR-5 ovarian) was 0.0435 µM, the GI50 (HL-60(TB) leukemia) was 0.014 µM and the TGI (HL-60(TB) leukemia) was 0.0294 µM. The GI50 (HS 578T breast) was 0.0132 µM, the TGI (HS 578T breast) was 0.0277 µM and the GI50 (OVCAR-8 ovarian) was 0.0155 µM. The TGI (OVCAR-8 ovarian) was 0.0299 µM, the GI50 (NCI-H522 lung) was 0.013 µM and the TGI (NCI-H522 lung) was 0.0268 µM. For the same compound, the GI50 (HCT-15 colon) was 0.139 µM, the TGI (HCT-15 colon) was 0.97 µM and the GI50 (EKVX NSCLC) was 0.0751 µM. The TGI (EKVX NSCLC) was 11 µM, the GI50 (OVCAR-4 ovarian) was 0.0316 µM and the TGI (OVCAR-4 ovarian) was 0.371 µM. The GI50 (SF-539 CNS) was 0.0136 µM, the TGI (SF-539 CNS) was 0.0271 µM and the GI50 (UO-31 renal) was 0.182 µM. It also gave a TGI (UO-31 renal) of 0.451 µM, a GI50 (NCI-H23 lung) of 0.0184 µM and a TGI (NCI-H23 lung) of 0.0359 µM. For the same compound, the GI50 (SW-620 colon) was 0.0324 µM, the GI50 (CCRF-CEM leukemia) was 0.0339 µM and the TGI (CCRF-CEM leukemia) was 0.11 µM. The GI50 (HOP-62 NSCLC) was 0.0137 µM, the TGI (HOP-62 NSCLC) was 0.0295 µM and the GI50 (M14 melanoma) was 0.018 µM. For the same compound, the TGI (M14 melanoma) was 0.0398 µM, the GI50 (LOX IMVI melanoma) was 0.0169 µM and the TGI (LOX IMVI melanoma) was 0.0312 µM. The GI50 (PC-3 prostate) was 0.0329 µM, the TGI (PC-3 prostate) was 0.22 µM and the GI50 (RPMI-8226 leukemia) was 0.0111 µM. For the same compound, the TGI (RPMI-8226 leukemia) was 0.0236 µM, the TGI (UACC-62 melanoma) was 0.0216 µM and the GI50 (MDA-MB-468 breast) was 0.0163 µM. It also gave a TGI (MDA-MB-468 breast) of 0.0324 µM, a GI50 (NCI-H322M lung) of 0.0174 µM and a TGI (NCI-H322M lung) of 0.0422 µM. For the same compound, the GI50 (MDA-MB-435 melanoma) was 0.0189 µM, the TGI (MDA-MB-435 melanoma) was 0.0384 µM and the GI50 (DU-145 prostate) was 0.0288 µM. For the same compound, the GI50 (SK-MEL-28 melanoma) was 0.0164 µM and the TGI (SK-MEL-28 melanoma) was 0.0305 µM.

Reference: PubChem BioAssay (NCI)
